Data on three compounds can be found in patent publication US20100197787A1, “Composition for Prevention of Hypoglycemic Condition” (priority 2005, published 2010).

Experiment [1] relates to rat brain cells. As to the kind of experiment: Promoting activity of intravenously administered BCAA in incorporation of carbohydrate into the brain (2DG-6P amount). Format: in vivo. As to conditions: at 24 hours after intravenous administration, 1.5% by mass in 5% by mass glucose, 10 mL/kg/hr, male SD rats, versus control group (5% glucose) and mixed amino acid group, FIG. 2. The text has this:
Control group: A solution prepared by dissolving glucose at a concentration of 5% by mass in purified water was used as the test solution for the control group. Mixed amino acid group: A solution prepared by dissolving […] (registered trademark, manufactured by Otsuka Pharmaceutical Co., Ltd.) at a concentration of 1.5% by mass in purified water containing 5% by mass glucose was used as the test solution for the mixed amino acid group. Leucine group: A solution prepared by dissolving L-leucine at a concentration of 1.5% by mass in purified water containing 5% by mass glucose was used as the test solution for the leucine group. Isoleucine group: A solution prepared by dissolving L-isoleucine at a concentration of 1.5% by mass in purified water containing 5% by mass glucose was used as the test solution for the isoleucine group. Valine group: A solution prepared by dissolving L-valine at a concentration of 1.5% by mass in purified water containing 5% by mass glucose was used as the test solution for the valine group. Male […] SD rats (Nippon Clare) were kept for 14 days and given free access to food (purified feed: AIN-93G manufactured by Nippon Nosan Kogyo Co., Ltd.) and water. At the age of 8-week-old, the rats were grouped depending on the body weight into 5 groups (control group, mixed amino acid group, leucine group, isoleucine group and valine group). After the grouping, under ether anesthesia, the cervical region of each rat was opened, and a catheter was inserted into the jugular vein. The other end of the catheter was passed subcutaneously, exposed on the back and connected via a harness to, and fixed to, a swivel. Then each rat was housed in a separate metabolism cage. […] The separated plasma was measured for its 2DG level and blood glucose level in the same manner as in the test method in Test Example 1. […] After blood removal, the brain tissue was removed, mixed with 1N NaOH that was 4 parts of the brain tissue by weight, and then heated in a water bath at 60° C. for 1 hour to lyse the brain tissue. To the brain tissue lysate solution, 1N HCl in the same amount as that of 1N NaOH was added, thereby neutralizing the solution to give a neutralized homogenate of the brain tissue. The amount of 2DG-6P in the neutralized homogenate was measured in the same manner as in the test method in Test Example 1, to determine the amount of the carbohydrate incorporated into the brain cells. In statistical processing, after analysis of variance, Dunnett's multiple comparison with the control was carried out to test significant difference.

The test system of experiment [2] is rat brain cells. As to the kind of experiment: Promoting activity of orally administered branched amino acid in incorporation of carbohydrate into the brain (2DG-6P amount). As to conditions: 1 hour after oral administration of suspension, 0.45 g/15 mL/kg BW, male Wistar rats, versus control group (physiological saline), FIG. 1. The class given is in vivo. Here is the method: Leucine group: An L-leucine suspension prepared by adding 3 g L-leucine to 100 mL physiological saline and suspending it with a homogenizer was used as a test solution of leucine group. Isoleucine group: An L-isoleucine suspension prepared by adding 3 g L-isoleucine to 100 mL physiological saline and suspending it with a homogenizer was used as a test solution of isoleucine group. Male 6-week-old Wistar rats (Charles River Japan, Inc.) were kept for 14 days and given free access to food (purified feed: AIN-93G manufactured by Nippon Nosan Kogyo Co., Ltd.) and water. At the age of 8-week-old, the rats were grouped depending on the body weight into 3 groups (control group, leucine group and isoleucine group). After the grouping, under ether anesthesia, the cervical region of each rat was opened, and a catheter was inserted into the jugular vein. The other end of the catheter was passed subcutaneously, exposed on the back and connected via a harness to, and fixed to, a swivel. Then each rat was housed in a separate metabolism cage. Physiological saline was administered via the catheter continuously at a rate of 1 mL/hr/body to the rat. […] 20 μL of the plasma was placed in a vial for liquid scintillation counter measurement, and then 5 mL scintillator was added to and mixed with the plasma, which was then measured for its tritium level (count) with a liquid scintillation counter to determine the amount of 2DG. The blood glucose level was measured by a glucose oxidase dye method. […] 900 μL of the separated supernatant was placed in a vial for liquid scintillation counter measurement, and then 5 mL scintillator was added to and mixed with the supernatant, which was then measured for its tritium level (count) with a liquid scintillation counter to determine the amount of 2DG. […] 900 μL of the separated supernatant was placed in a vial for liquid scintillation counter measurement, and then 10 mL scintillator was added to and mixed with the supernatant, which was then measured for its tritium level (count) with a liquid scintillation counter to determine the amount of 2DG and 2DG-6P. […]

`CC(C)[C@H](N)C(=O)O` [L-valine]: the “amount of the carbohydrate incorporated into brain cells (amount of 2DG-6P)” value (“amount” for short) with rat brain cells [1] is “higher than that of the control group and of the mixed amino acid group”; in the experiment with rat brain cells [1] (listed as valine), “tendency to promote incorporation of the carbohydrate into brain cells was recognized”.
Consider `CC(C)C[C@H](N)C(=O)O` [L-leucine], for which the “amount” value in the experiment on rat brain cells [2] was “higher than that of the control group”; in the experiment with rat brain cells [1], “higher than that of the control group and of the mixed amino acid group”.
`CC[C@H](C)[C@H](N)C(=O)O` [L-isoleucine]: the “amount” value with rat brain cells [2] is “higher than that of the control group”; in the experiment on rat brain cells [2] (listed as isoleucine), “significantly promoted”; with rat brain cells [1] it was “higher than that of the control group and of the mixed amino acid group”; in the experiment on rat brain cells [1] (listed as isoleucine), “tendency to promote incorporation of the carbohydrate into brain cells was recognized”.
